Data as given in patent US12303509B2, “Compounds for the treatment of BRAF-associated diseases and disorders” (Pfizer Inc., priority 2020, dated 2025).
Counter-ions that a name gives are not always drawn. Like-named read-outs stand apart in the source and are kept apart here.

Columns and labels:
[1] = target: P-gp (MDR1) (Homo sapiens (Human), UniProt P08183); assay: MDR1 LLC-PK1 permeability assay: efflux ratio; assay type: in vitro ADME; conditions: pig
Text: (§1) Final organic concentration in the assay was 1%.

[2] = MDR1 LLC-PK1 and BCRP MDCKII permeability assay: permeability coefficient (Papp); assay type: in vitro ADME
Text: as §1

[3] = test system: H1755 cells; assay: Cellular phospho-ERK inhibition assay in H1755 cells; assay type: cell-based; conditions: Homo sapiens, NCI-H1755, 2 hours treatment, read-out: H1755 Cell IC50
How it was run: (§2)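 A375 (DMEM) or H1755 (RPMI) cells in 10% FBS treated 2 h at 37 °C with 9-point series, 66 pM–10 μM, 0.25% DMSO. Phospho-ERK1/2 (Thr202/Tyr204) measured by In Cell Western, normalised to GAPDH and to DMSO and 10 μM binimetinib controls; IC50 by 4-parameter fit.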

[4] = target: BCRP (Homo sapiens (Human), UniProt Q9UNQ0); assay: BCRP MDCKII permeability assay: efflux ratio; assay type: in vitro ADME; conditions: dog
Sequence of BCRP (Q9UNQ0 whole entry): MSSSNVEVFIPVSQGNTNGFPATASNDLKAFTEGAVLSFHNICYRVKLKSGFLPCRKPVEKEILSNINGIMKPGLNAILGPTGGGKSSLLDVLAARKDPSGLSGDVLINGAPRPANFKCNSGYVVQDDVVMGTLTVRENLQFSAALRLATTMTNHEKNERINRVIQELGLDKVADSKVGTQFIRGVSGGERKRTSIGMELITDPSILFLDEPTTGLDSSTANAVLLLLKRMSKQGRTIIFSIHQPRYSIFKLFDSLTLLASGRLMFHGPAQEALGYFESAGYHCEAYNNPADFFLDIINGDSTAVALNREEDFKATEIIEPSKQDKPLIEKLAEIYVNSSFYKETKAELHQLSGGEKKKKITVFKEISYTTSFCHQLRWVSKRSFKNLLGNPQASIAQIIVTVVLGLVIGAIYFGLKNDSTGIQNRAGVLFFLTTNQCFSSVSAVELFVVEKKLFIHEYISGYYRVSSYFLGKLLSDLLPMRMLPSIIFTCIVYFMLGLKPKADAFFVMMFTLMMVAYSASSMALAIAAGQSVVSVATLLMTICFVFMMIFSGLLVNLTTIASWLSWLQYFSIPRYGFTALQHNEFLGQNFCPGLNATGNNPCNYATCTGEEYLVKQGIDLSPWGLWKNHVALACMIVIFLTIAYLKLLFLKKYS

[5] = test system: A375 cells; assay: Cellular phospho-ERK inhibition assay in A375 cells; assay type: cell-based; conditions: Homo sapiens, A-375, A375 cells (head prints A357), 2 hours treatment, read-out: A357 cell IC50
How it was run: as §2

[6] = target: full-length FLAG-tagged B-Raf(V600E) (Homo sapiens (Human), UniProt P15056, V600E); assay: BRAF V600E enzyme assay (TR-FRET competitive displacement); assay type: binding
Sequence of full-length FLAG-tagged B-Raf(V600E) (P15056 whole entry V600E): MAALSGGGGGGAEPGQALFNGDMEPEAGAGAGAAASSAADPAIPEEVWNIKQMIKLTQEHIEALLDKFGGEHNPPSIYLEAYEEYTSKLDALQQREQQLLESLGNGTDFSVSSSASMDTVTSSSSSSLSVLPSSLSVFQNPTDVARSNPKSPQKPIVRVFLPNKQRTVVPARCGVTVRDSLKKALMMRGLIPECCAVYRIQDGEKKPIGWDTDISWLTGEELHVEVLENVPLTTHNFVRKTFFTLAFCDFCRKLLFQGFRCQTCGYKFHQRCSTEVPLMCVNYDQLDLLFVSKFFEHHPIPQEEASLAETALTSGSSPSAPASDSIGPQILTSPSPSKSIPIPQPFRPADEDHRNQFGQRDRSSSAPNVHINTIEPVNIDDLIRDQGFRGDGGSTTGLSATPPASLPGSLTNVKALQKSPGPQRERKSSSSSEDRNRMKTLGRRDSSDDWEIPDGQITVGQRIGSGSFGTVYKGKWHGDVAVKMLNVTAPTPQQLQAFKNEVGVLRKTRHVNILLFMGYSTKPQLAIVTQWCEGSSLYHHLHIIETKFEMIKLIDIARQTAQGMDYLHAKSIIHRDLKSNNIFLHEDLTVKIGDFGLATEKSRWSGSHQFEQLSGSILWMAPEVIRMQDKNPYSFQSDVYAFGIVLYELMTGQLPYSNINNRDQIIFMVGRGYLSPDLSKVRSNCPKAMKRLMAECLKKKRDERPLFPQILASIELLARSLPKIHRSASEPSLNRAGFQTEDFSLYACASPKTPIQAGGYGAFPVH
How it was run: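 Displacement of 50 nM Tracer 1710 from 5 nM full-length N-terminally FLAG-tagged B-Raf(V600E), detected by TR-FRET with 0.5 nM Eu anti-FLAG antibody, in 25 mM HEPES pH 7.4, 10 mM MgCl2, 2% DMSO; 60 min at ~22 °C. Compounds 11-point, 3-fold from 10 μM; IC50 from 4-parameter fit at 50 POC.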

[7] = averaged IC50, TR-FRET tracer displacement, 60 min

Sequence of P-gp (MDR1) (P08183 whole entry, species assumed): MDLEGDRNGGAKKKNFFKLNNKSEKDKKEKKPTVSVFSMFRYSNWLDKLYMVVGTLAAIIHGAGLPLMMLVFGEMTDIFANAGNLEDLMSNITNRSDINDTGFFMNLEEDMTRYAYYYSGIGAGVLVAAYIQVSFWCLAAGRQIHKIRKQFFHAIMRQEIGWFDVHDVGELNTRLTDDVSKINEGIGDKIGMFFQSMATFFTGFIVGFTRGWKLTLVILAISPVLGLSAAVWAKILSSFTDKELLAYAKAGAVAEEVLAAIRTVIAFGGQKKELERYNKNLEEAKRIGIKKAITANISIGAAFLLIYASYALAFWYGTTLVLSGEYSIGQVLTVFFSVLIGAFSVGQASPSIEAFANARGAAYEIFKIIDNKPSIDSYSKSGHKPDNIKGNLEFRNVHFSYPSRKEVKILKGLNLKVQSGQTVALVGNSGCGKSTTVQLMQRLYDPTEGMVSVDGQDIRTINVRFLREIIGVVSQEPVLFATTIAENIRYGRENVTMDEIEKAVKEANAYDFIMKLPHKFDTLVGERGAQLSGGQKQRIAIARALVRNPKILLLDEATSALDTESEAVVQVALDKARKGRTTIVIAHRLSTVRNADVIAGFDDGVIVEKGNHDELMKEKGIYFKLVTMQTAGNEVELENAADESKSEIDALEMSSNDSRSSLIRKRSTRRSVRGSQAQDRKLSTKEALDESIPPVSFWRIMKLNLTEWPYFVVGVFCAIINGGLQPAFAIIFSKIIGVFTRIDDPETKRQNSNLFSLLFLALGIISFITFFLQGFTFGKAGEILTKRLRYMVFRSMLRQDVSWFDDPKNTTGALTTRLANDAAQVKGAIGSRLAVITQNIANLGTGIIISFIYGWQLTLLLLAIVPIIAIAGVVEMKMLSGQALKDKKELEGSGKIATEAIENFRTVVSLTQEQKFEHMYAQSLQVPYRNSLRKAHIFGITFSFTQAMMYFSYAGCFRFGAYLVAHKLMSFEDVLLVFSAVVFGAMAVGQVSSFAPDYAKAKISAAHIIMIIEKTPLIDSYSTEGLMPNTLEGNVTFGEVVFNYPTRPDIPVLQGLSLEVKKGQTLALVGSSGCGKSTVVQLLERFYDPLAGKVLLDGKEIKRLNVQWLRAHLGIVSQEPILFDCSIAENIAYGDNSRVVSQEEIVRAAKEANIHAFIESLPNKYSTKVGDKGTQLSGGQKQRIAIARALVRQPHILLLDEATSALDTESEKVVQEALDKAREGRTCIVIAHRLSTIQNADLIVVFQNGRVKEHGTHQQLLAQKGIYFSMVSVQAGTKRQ

efflux ratio at 2 h, 1 µM [1]	Papp at 2 h, 1 µM [2] [×10⁻⁶ cm/s]	IC50 [3] [nM]	efflux ratio at 2 h, 1 µM [4]	IC50 [5] [nM]	IC50 [6] [nM]	IC50 [6, 7] [nM]	Structure (SMILES)
1.4	24	76	1	8	2		Cn1cnc2ccc(Oc3c(F)ccc(NS(=O)(=O)N4CC5CC4C5)c3Cl)c(Cl)c2c1=O [Example 67, N-(2-chloro-3-((5-chloro-3-methyl-4-oxo-3,4-dihydroquinazolin-6-yl)oxy)-4-fluorophenyl)-2-azabicyclo[2.1.1]hexane-2-sulfonamide]
0.7	25	286	1	64	21		CCN(C)S(=O)(=O)Nc1ccc(F)c(Oc2ccc3ncn(C)c(=O)c3c2C)c1Cl [Example 68, 6-(2-Chloro-3-{[ethyl(methyl)sulfamoyl]amino}-6-fluorophenoxy)-3,5-dimethyl-3,4 dihydroquinazolin-4-one]
0.8	25	88	0.9	22	7		Cc1c(Oc2c(F)ccc(NS(=O)(=O)N3CCCC3)c2Cl)ccc2ncn(C)c(=O)c12 [Example 69, N-(2-chloro-3-((3,5-dimethyl-4-oxo-3,4-dihydroquinazolin-6-yl)oxy)-4-fluorophenyl)pyrrolidine-1-sulfonamide]
1.2	40	161	0.9	69		301	Cc1c(Nc2c(F)ccc(NS(=O)(=O)N(C)C)c2Cl)ccc2ncn(C)c(=O)c12 [Example 71, N-(2-chloro-3-((3,5-dimethyl-4-oxo-3,4-dihydroquinazolin-6-yl)amino)-4-fluorophenyl)-(N,N-dimethyl)-sulfamide]
2.2	32	155	1.9	31		67	CN(C)S(=O)(=O)Nc1ccc(F)c(Nc2ccc3ncn(C)c(=O)c3c2F)c1Cl [Example 83, N-(2-chloro-4-fluoro-3-((5-fluoro-3-methyl-4-oxo-3,4-dihydroquinazolin-6-yl)amino)phenyl)-(N.N-dimethyl)-sulfamide]
1.9	28	182	1.6	34		42	Cc1c(Nc2c(F)ccc(NS(=O)(=O)N3CC[C@H](F)C3)c2Cl)ccc2ncn(C)c(=O)c12 [Example 86, (S)-N-(2-chloro-3-((3,5-dimethyl-4-oxo-3,4-dihydroquinazolin-6-yl)amino)-4-fluorophenyl)-3-fluoropyrrolidine-1-sulfonamide trifluoroacetate]
1	21	215	0.6	73		33	Cc1c(Nc2c(F)ccc(NS(=O)(=O)N3CC4CC3C4)c2Cl)ccc2ncn(C)c(=O)c12 [Example 87, N-(2-chloro-3-((3,5-dimethyl-4-oxo-3,4-dihydroquinazolin-6-yl)amino)-4-fluorophenyl)-2-azabicyclo[2.1.1]hexane-2-sulfonamide trifluoroacetate]
1.3	21	173	1	50		14	Cc1c(Nc2c(F)ccc(NS(=O)(=O)N3CC[C@@H](OC(F)F)C3)c2Cl)ccc2ncn(C)c(=O)c12 [Example 89]
2.3	31	127	3.5	49		9	Cc1c(Nc2c(F)ccc(NS(=O)(=O)N3C[C@@H](F)[C@@H](F)C3)c2Cl)ccc2ncn(C)c(=O)c12 [Example 90, (cis)-N-(2-chloro-3-((3,5-dimethyl-4-oxo-3,4-dihydroquinazolin-6-yl)amino)-4-fluorophenyl)-3,4-difluoropyrrolidine-1-sulfonamide]
1.2	22	35	1.9	36		8	Cc1c(Nc2c(F)ccc(NS(=O)(=O)N3CC4CC4C3)c2Cl)ccc2ncn(C)c(=O)c12 (stereo not drawn) [Example 92, N-(2-chloro-3-((3,5-dimethyl-4-oxo-3,4-dihydroquinazolin-6-yl)amino)-4-fluorophenyl)-3-azabicyclo[3.1.0]hexane-3-sulfonamide]
1.4	33	195	0.8	60		3	Cc1c(Nc2c(F)ccc(NS(=O)(=O)N3CCC(F)(F)C3)c2Cl)ccc2ncn(C)c(=O)c12 [Example 93, N-(2-chloro-3-((3,5-dimethyl-4-oxo-3,4-dihydroquinazolin-6-yl)amino)-4-fluorophenyl)-3,3-difluoropyrrolidine-1-sulfonamide]
0.9	22	281	1.7	138		20	CCC1CCN(S(=O)(=O)Nc2ccc(F)c(Nc3ccc4ncn(C)c(=O)c4c3Cl)c2Cl)C1 (stereo not drawn) [Example 94, N-(2-chloro-3-((5-chloro-3-methyl-4-oxo-3,4-dihydroquinazolin-6-yl)amino)-4-fluorophenyl)-3-ethylpyrrolidine-1-sulfonamide trifluoroacetate]
2.7	25	796	6.8	111		2	Cc1c(Nc2c(F)c(F)cc(NS(=O)(=O)N3C[C@@H](F)[C@@H](F)C3)c2Cl)ccc2ncn(C)c(=O)c12 [Example 95, cis-N-(2-chloro-3-((3,5-dimethyl-4-oxo-3,4-dihydroquinazolin-6-yl)amino)-4,5-difluorophenyl)-3,4-difluoropyrrolidine-1-sulfonamide]
1.2	27	586	1.1	40		3	Cc1c(Nc2c(F)c(F)cc(NS(=O)(=O)N3CCCC3)c2Cl)ccc2ncn(C)c(=O)c12 [Example 96, N-(2-chloro-3-((3,5-dimethyl-4-oxo-3,4-dihydroquinazolin-6-yl)amino)-4,5-difluorophenyl)pyrrolidine-1-sulfonamide]
0.9	30	610	1.8	88		10	CCN(C)S(=O)(=O)Nc1cc(F)c(F)c(Nc2ccc3ncn(C)c(=O)c3c2C)c1Cl [Example 97, N-(2-chloro-3-((3,5-dimethyl-4-oxo-3,4-dihydroquinazolin-6-yl)amino)-4,5-difluorophenyl)-(N-ethyl-N-methyl)-sulfamide]
1.7	34	100	1.4	33		5	CO[C@@H]1CCN(S(=O)(=O)Nc2cc(F)c(F)c(Nc3ccc4ncn(C)c(=O)c4c3C)c2Cl)C1 [Example 99, (R)-N-(2-chloro-3-((3,5-dimethyl-4-oxo-3,4-dihydroquinazolin-6-yl)amino)-4,5-difluorophenyl)-3-methoxypyrrolidine-1-sulfonamide]
3.2	25	365	3.5	118		5	Cc1c(Nc2cc(Cl)cc(NS(=O)(=O)N3CC[C@@H](F)C3)c2F)ccc2ncn(C)c(=O)c12 [Example 103, (R)-N-(5-chloro-3-((3,5-dimethyl-4-oxo-3,4-dihydroquinazolin-6-yl)amino)-2-fluorophenyl)-3-fluoropyrrolidine-1-sulfonamide]
1.2	22	307	1.3	133		5	Cc1c(Nc2cc(Cl)cc(NS(=O)(=O)N3CCCC3)c2F)ccc2ncn(C)c(=O)c12 [Example 104, N-(5-chloro-3-((3,5-dimethyl-4-oxo-3,4-dihydroquinazolin-6-yl)amino)-2-fluorophenyl)pyrrolidine-1-sulfonamide]
1.2	22	430	0.8	131		12	CC[C@@H]1CCN(S(=O)(=O)Nc2ccc(F)c(Nc3ccc4ncn(C)c(=O)c4c3Cl)c2Cl)C1 [Example 106, (R)-N-(2-chloro-3-((5-chloro-3-methyl-4-oxo-3,4-dihydroquinazolin-6-yl)amino)-4-fluorophenyl)-3-ethylpyrrolidine-1-sulfonamide trifluoroacetate]
